Where two headings read alike, the source gives them in different places.
Key:
[1] = test system: DOHH2 cells; experiment: Cell proliferation assay (MTS), DOHH2 cells, 120 h; type: cell-based
Summary of the method: (§1)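 Treatment lasts 72 h for RS4;11 and 120 h for DOHH2 cells seeded at 5000 per well in serum-containing RPMI-1640. A 2 h MTS step, halted with 10% SDS, precedes dual-wavelength absorbance reading and IC50 fitting.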

[2] = test system: RS4;11 cells; experiment: Cell proliferation assay (MTS), RS4;11 cells, 72 h; type: cell-based
Summary of the method: as §1

`CC1(C)CCC(CN2CCN(c3ccc(C(=O)NS(=O)(=O)c4cc5c(c([N+](=O)[O-])c4)N[C@H](CCN4CCS(=O)(=O)CC4)CO5)c(Oc4cnc5[nH]ccc5c4)c3)CC2)=C(c2ccc(Cl)cc2)C1` [Example 2-126, (R)-2-((1H-pyrrolo[2,3-b]pyridin-5-yl)oxy)-4-(4-((4′-chloro-5,5-dimethyl-3,4,5,6-tetra-hydro-[1,1′-biphenyl]-2-yl)methyl)piperazin-1-yl)-N-((3-(2-(1,1-dioxidothiomorpholino)ethyl)-5-nitro-3,4-dihydro-2H-benzo[b] [1,4]oxazin-7-yl)sulfonyl)benzamide] was tested, and the IC50 ([1]; Homo sapiens, DOHH-2, 120 h) was 11 nM and the IC50 ([2]; Homo sapiens, RS4-11, 72 h) was 5 nM.
Compound `CC1(C)CCC(CN2CCN(c3ccc(C(=O)NS(=O)(=O)c4cc5c(c([N+](=O)[O-])c4)N[C@H](CN=S4(=O)CCOCC4)CO5)c(Oc4cnc5[nH]ccc5c4)c3)CC2)=C(c2ccc(Cl)cc2)C1` [Example 2-72, (R)-2-((1H-pyrrolo[2,3-b]pyridin-5-yl)oxy)-4-(4-((4′-chloro-5,5-dimethyl-3,4,5,6-tetra-hydro-[1,1′-biphenyl]-2-yl)methyl)piperazin-1-yl)-N-((5-nitro-3-(((4-oxido-1,4λ^6-oxa-thian-4-ylidene)amino)methyl)-3,4-dihydro-2H-benzo[b][1,4]oxazin-7-yl)sulfonyl)ben-zamide] has an IC50 ([1]; Homo sapiens, DOHH-2, 120 h) of 24 nM and an IC50 ([2]; Homo sapiens, RS4-11, 72 h) of 6 nM.
Work on `CC1(C)CCC(CN2CCN(c3ccc(C(=O)NS(=O)(=O)c4cc5c(c([N+](=O)[O-])c4)N[C@H](CCN4CCS(=O)(=NC6CC6)CC4)CO5)c(Oc4cnc5[nH]ccc5c4)c3)CC2)=C(c2ccc(Cl)cc2)C1` [Example 2-129, (R)-2-((1H-pyrrolo[2,3-b]pyridin-5-yl)oxy)-4-(4-((4′-chloro-5,5-dimethyl-3,4,5,6-tetra-hydro-[1,1′-biphenyl]-2-yl)methyl)piperazin-1-yl)-N-((3-(2-(1-(cylcopropylimino)-1-oxido-1λ^6-thiomorphlino)ethyl)-5-nitro-3,4-dihydro-2H-benzo[b][1,4]oxazin-7-yl)sulfanoyl)benzamide] yielded an IC50 ([1]; Homo sapiens, DOHH-2, 120 h) of 16 nM and an IC50 ([2]; Homo sapiens, RS4-11, 72 h) of 9 nM.
For `CC1(C)CCC(CN2CCN(c3ccc(C(=O)NS(=O)(=O)c4cc5c(c([N+](=O)[O-])c4)N[C@@H](c4ccc(C#N)cc4)CO5)c(Oc4cnc5[nH]ccc5c4)c3)CC2)=C(c2ccc(Cl)cc2)C1` [Example 2-206, (S)-2-((1H-pyrrolo[2,3-b]pyridin-5-yl)oxy)-4-(4-((4′-chloro-5,5-dimethyl-3,4,5,6-tetra-hydro-[1,1′-biphenyl]-2-yl)methyl)piperazin-1-yl)-N-((3-(4-cyanophenyl)-5-nitro-3,4-dihdyro-2H-benzo[b][1,4]oxazin-7-yl)sulfo-nyl)benzamide], the IC50 ([1]; Homo sapiens, DOHH-2, 120 h) was 312 nM and the IC50 ([2]; Homo sapiens, RS4-11, 72 h) was 21 nM.
`CC1(C)CCC(CN2CCN(c3ccc(C(=O)NS(=O)(=O)c4cc5c(c([N+](=O)[O-])c4)N[C@@H](CCN4CC(C)(O)C4)CO5)c(Oc4cnc5[nH]ccc5c4)c3)CC2)=C(c2ccc(Cl)cc2)C1` [Example 2-45, (S)-2-((1H-pyrrolo[2,3-b]pyridin-5-yl)oxy)-4-(4-((4′-chloro-5,5-dimethyl-3,4,5,6-tetra-hydro-[1,1′-biphenyl]-2-yl)methyl)piperazin-1-yl)-N-((3-(2-(3-hydroxy-3-methylazeti-din-1-yl)ethyl)-5-nitro-3,4-dihydro-2H-ben-zo[b][1,4]oxazin-7-yl)sulfonyl)benzamide] was tested, and the IC50 ([1]; Homo sapiens, DOHH-2, 120 h) was 17 nM and the IC50 ([2]; Homo sapiens, RS4-11, 72 h) was 12 nM.
`COCC[C@H]1COc2cc(S(=O)(=O)NC(=O)c3ccc(N4CCN(CC5=C(c6ccc(Cl)cc6)CC(C)(C)CC5)CC4)cc3Oc3cnc4[nH]ccc4c3)cc([N+](=O)[O-])c2N1` [Example 2-118, (S)-2-((1H-pyrrolo[2,3-b]pyridin-5-yl)oxy)-4-(4-((4′-chloro-5,5-dimethyl-3,4,5,6-tetra-hydro-[1,1′-biphenyl]-2-yl)methyl)piperazin-1-yl)-N-((3-(2-methoxyethyl)-5-nitro-3,4-dihydro-2H-benzo[b][1,4]oxazin-7-yl)sulfonyl)benzamide] showed an IC50 ([1]; Homo sapiens, DOHH-2, 120 h) of 649 nM and an IC50 ([2]; Homo sapiens, RS4-11, 72 h) of 11 nM.
`C[C@H]1CN(CC[C@H]2COc3cc(S(=O)(=O)NC(=O)c4ccc(N5CCN(CC6=C(c7ccc(Cl)cc7)CC(C)(C)CC6)CC5)cc4Oc4cnc5[nH]ccc5c4)cc([N+](=O)[O-])c3N2)CCN1C1COC1` [Example 2-50] was tested, and the IC50 ([1]; Homo sapiens, DOHH-2, 120 h) was 22 nM and the IC50 ([2]; Homo sapiens, RS4-11, 72 h) was 9 nM.
In the case of `CC1(C)CCC(CN2CCN(c3ccc(C(=O)NS(=O)(=O)c4cc5c(c([N+](=O)[O-])c4)N[C@H](CN4CCC(C)(O)CC4)CO5)c(Oc4cnc5[nH]ccc5c4)c3)CC2)=C(c2ccc(Cl)cc2)C1` [Example 2-6, (R)-2-((1H-pyrrolo[2,3-b]pyridin-5-yl)oxy)-4-(4-((4′-chloro-5,5-dimethyl-3,4,5,6-tetra-hydro-[1,1′-biphenyl]-2-yl)methyl)piperazin-1-yl)-N-((3-((4-hydroxy-4-methylpiperdin-1-yl)methyl)-5-nitro-3,4-dihydro-2H-benzo[b][1,4]oxazin-7-yl)sulfonyl)benzamide], the IC50 ([1]; Homo sapiens, DOHH-2, 120 h) is reported as 18 nM and the IC50 ([2]; Homo sapiens, RS4-11, 72 h) is reported as 2 nM.
With `CN1CCN(C(=O)[C@H]2COc3cc(S(=O)(=O)NC(=O)c4ccc(N5CCN(CC6=C(c7ccc(Cl)cc7)CC(C)(C)CC6)CC5)cc4Oc4cnc5[nH]ccc5c4)cc([N+](=O)[O-])c3N2)CC1` [Example 2-104, (R)-2-((1H-pyrrolo[2,3-b]pyridin-5-yl)oxy)-4-(4-((4′-chloro-5,5-dimethyl-3,4,5,6-tetra-hydro[1,1′-biphenyl]-2-yl)methyl)piperazin-1-yl)-N-((3-(4-methylpiperazine-1-carbo-nyl)-5-nitro-3,4-dihydro-2H-benzo[b][1,4]oxazin-7-yl)sulfonyl)benzamide] the IC50 ([1]; Homo sapiens, DOHH-2, 120 h) was 173 nM and the IC50 ([2]; Homo sapiens, RS4-11, 72 h) was 7 nM.
`CC1(C)CCC(CN2CCN(c3ccc(C(=O)NS(=O)(=O)c4cc5c(c([N+](=O)[O-])c4)N[C@@H](CC#N)CO5)c(Oc4cnc5[nH]ccc5c4)c3)CC2)=C(c2ccc(Cl)cc2)C1` [Example 2-115, (S)-2-((1H-pyrrolo[2,3-b]pyridin-5-yl)oxy)-4-(4-((4′-chloro-5,5-dimethyl-3,4,5,6-tetra-hydro-[1,1′-biphenyl]-2-yl)methyl)piperazin-1-yl)-N-((3-(cyanomethyl)-5-nitro-3,4-di-hydro-2H-benzo[b][1,4]oxazin-7-yl)sulfonyl-yl)benzamide] gave an IC50 [1] of 38 nM and an IC50 [2] of 6 nM.
`CC1(C)CCC(CN2CCN(c3ccc(C(=O)NS(=O)(=O)c4cc5c(c([N+](=O)[O-])c4)N[C@H](CCN4CC(C)(O)C4)CO5)c(Oc4cnc5[nH]ccc5c4)c3)CC2)=C(c2ccc(Cl)cc2)C1` [Example 2-35, (R)-2-((1H-pyrrolo[2,3-b]pyridin-5-yl)oxy)-4-(4-((4′-chloro-5,5-dimethyl-3,4,5,6-tetra-hydro-[1,1′-biphenyl]-2-yl)methyl)piperazin-1-yl)-N-((3-(2-(3-hydroxy-3-methylazetidin-1-yl)ethyl)-5-nitro-3,4-dihydro-2H-ben-zo[b][1,4]oxazin-7-yl)sulfonyl)benzamide] gave an IC50 ([1]; Homo sapiens, DOHH-2, 120 h) of 30 nM and an IC50 ([2]; Homo sapiens, RS4-11, 72 h) of 5 nM.
Compound `CC(=O)N1CCC([C@H]2COc3cc(S(=O)(=O)NC(=O)c4ccc(N5CCN(CC6=C(c7ccc(Cl)cc7)CC(C)(C)CC6)CC5)cc4Oc4cnc5[nH]ccc5c4)cc([N+](=O)[O-])c3N2)CC1` [Example 2-231, (S)-2-((1H-pyrrolo[2,3-b]pyridin-5-yl)oxy)-N-((3-(1-acetylpiperidin-4-yl)-5-nitro-3,4-dihydro-2H-benzo[b][1,4]oxazin-7-yl)sulfonyl)-4-(4-((4′-chloro-5,5-dimethyl-3,4,5,6-tetrahydro-[1,1′-biphenyl]-2-yl)methyl)pi-perazin-1-yl)benzamide] has an IC50 ([1]; Homo sapiens, DOHH-2, 120 h) of 5 nM and an IC50 ([2]; Homo sapiens, RS4-11, 72 h) of 1 nM.
`CC(C)[C@@H]1COc2cc(S(=O)(=O)NC(=O)c3ccc(N4CCN(CC5=C(c6ccc(Cl)cc6)CC(C)(C)CC5)CC4)cc3Oc3cnc4[nH]ccc4c3)cc([N+](=O)[O-])c2N1` [Example 2-108, (R)-2-((1H-pyrrolo[2,3-b]pyridin-5-yl)oxy)-4-(4-((4′-chloro-5,5-dimethyl-3,4,5,6-tetra-hydro-[1,1′-biphenyl]-2-yl)methyl)piperazin-1-yl)-N-((3-isopropyl-5-nitro-3,4-dihydro-2H-benzo[b][1,4]oxazin-7-yl)sulfonyl) benzamide] showed an IC50 ([1]; Homo sapiens, DOHH-2, 120 h) of 51 nM and an IC50 ([2]; Homo sapiens, RS4-11, 72 h) of 16 nM.
Compound `CC1(C)CCC(CN2CCN(c3ccc(C(=O)NS(=O)(=O)c4cc5c(c([N+](=O)[O-])c4)N[C@H](CN4CCP(C)(=O)CC4)CO5)c(Oc4cnc5[nH]ccc5c4)c3)CC2)=C(c2ccc(Cl)cc2)C1` [Example 2-154, (R)-2-((1H-pyrrolo[2,3-b]pyridin-5-yl)oxy)-4-(4-((4′-chloro-5,5-dimethyl-3,4,5,6-tetra-hydro-[1,1′-biphenyl]-2-yl)methyl)piperazin-1-yl)-N-((3-((4-methyl-4-oxido-1,4-aza-phosphinan-1-yl)methyl)-5-nitro-3,4-dihydro-2H-benzo[b][1,4]oxazin-7-yl)sulfonyl) benzamide] has an IC50 ([1]; Homo sapiens, DOHH-2, 120 h) of 201 nM and an IC50 ([2]; Homo sapiens, RS4-11, 72 h) of 24 nM.
In the case of `CCC(=O)N1CCN(C[C@H]2COc3cc(S(=O)(=O)NC(=O)c4ccc(N5CCN(CC6=C(c7ccc(Cl)cc7)CC(C)(C)CC6)CC5)cc4Oc4cnc5[nH]ccc5c4)cc([N+](=O)[O-])c3N2)CC1` [Example 2-97, (S)-2-((1H-pyrrolo[2,3-b]pyridin-5-yl)oxy)-4-(4-((4′-chloro-5,5-dimethyl-3,4,5,6-tetra-hydro-[1,1′-biphenyl]-2-yl)methyl)piperazin-1-yl)-N-((5-nitro-3-((4-propionylpiperazin-1-yl)methyl)-3,4-dihydro-2H-benzo[b] [1,4]oxazin-7-yl)sulfonyl)benzamide], the IC50 ([1]; Homo sapiens, DOHH-2, 120 h) is reported as 23 nM and the IC50 ([2]; Homo sapiens, RS4-11, 72 h) is reported as 23 nM.
With `C[C@@H]1CN(CC[C@H]2COc3cc(S(=O)(=O)NC(=O)c4ccc(N5CCN(CC6=C(c7ccc(Cl)cc7)CC(C)(C)CC6)CC5)cc4Oc4cnc5[nH]ccc5c4)cc([N+](=O)[O-])c3N2)CCN1C` [Example 2-46, 2-((1H-pyrrolo[2,3-b]pyridin-5-yl)oxy)-4-(4-((4′-chloro-5,5-dimethyl-3,4,5,6-tetrahydro-[1,1′-biphenyl]-2-yl)methyl)piperazin-1-yl)-N-(((S)-3-(2-((R)-3,4-dimethylpiperazin-1-yl)ethyl)-5-nitro-3,4-dihydro-2H-benzo [b][1,4]oxazin-7-yl)sulfonyl)benzamide] the IC50 ([1]; Homo sapiens, DOHH-2, 120 h) was 7 nM and the IC50 ([2]; Homo sapiens, RS4-11, 72 h) was 1 nM.

Reference: US11091478B2 (Fochon Pharmaceuticals, Ltd., priority 2017, dated 2021)
